Target: T1, subunit H of V-ATPase (recombinant subunit H) (Mythimna separata, UniProt A0A0D3L6K4)
T1 construct: full CDS in pET-15b, N-terminal His tag, E. coli BL21 (DE3), Ni-NTA twice, ~55 kDa, free subunit
T1 sequence (A0A0D3L6K4 1-474): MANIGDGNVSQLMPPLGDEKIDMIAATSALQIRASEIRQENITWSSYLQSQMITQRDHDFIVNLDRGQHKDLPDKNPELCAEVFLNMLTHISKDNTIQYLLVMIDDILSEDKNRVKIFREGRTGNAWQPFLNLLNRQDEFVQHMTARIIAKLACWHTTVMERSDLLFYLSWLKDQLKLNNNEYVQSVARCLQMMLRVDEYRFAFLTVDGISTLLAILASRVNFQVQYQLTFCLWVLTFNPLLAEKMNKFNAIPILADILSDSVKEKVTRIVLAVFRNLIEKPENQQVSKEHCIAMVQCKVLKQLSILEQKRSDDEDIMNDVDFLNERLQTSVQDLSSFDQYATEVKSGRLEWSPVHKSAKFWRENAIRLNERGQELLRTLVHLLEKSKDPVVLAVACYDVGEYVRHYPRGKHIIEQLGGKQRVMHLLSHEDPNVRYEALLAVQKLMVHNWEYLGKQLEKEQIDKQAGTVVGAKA
Assay: microscale thermophoresis (Monolith NT.[…]), RED-NHS labelled protein
Assay type: binding

Point of comparison: `CNc1ccccc1C(=O)O[C@@H]1[C@H]2[C@H](OC(=O)C(C)C)[C@@H](OC(=O)c3ccccc3)[C@]3(COC(=O)C(C)C)[C@@H](OC(C)=O)[C@@H](OC(C)=O)C[C@](C)(O)[C@@]13OC2(C)C` [CV-6-N-methylisatoic], Kd 213 µM. Against it:
- CC(=O)O[C@H]1C[C@](C)(O)[C@]23OC(C)(C)[C@H]([C@H](OC(=O)C(C)C)[C@@H](OC(=O)c4ccccc4)[C@]2(COC(=O)C(C)C)[C@H]1OC(C)=O)[C@H]3OC(=O)CN [CV-6-aminoacetic acid ester] — within 1.5-fold, 156 µM
- CC(=O)O[C@H]1C[C@](C)(O)[C@]23OC(C)(C)[C@H]([C@H](OC(=O)C(C)C)[C@@H](OC(=O)c4ccccc4)[C@]2(COC(=O)C(C)C)[C@H]1OC(C)=O)[C@H]3OC(=O)C(C)N (stereo partly drawn) [CV-6-α-aminopropanoic acid ester] — within 1.5-fold, 144 µM

From paper PMC4810224, “Validation of the Target Protein of Insecticidal Dihydroagarofuran Sesquiterpene Polyesters” (Toxins, 2016)
